{"source": "ChEMBL document CHEMBL3400142", "about": "“Synthesis of nitro(benzo)thiazole acetamides and in vitro antiprotozoal effect against amitochondriate parasites Giardia intestinalis and Trichomonas vaginalis” (Bioorg Med Chem, 2015)", "key": {"[1]": {"tested_on": "Giardia intestinalis", "assay": "Ratio of metronidazole IC50 to compound IC50 for Giardia intestinalis IMSS:0696:1 compound treated for 48 hrs followed by incubation for 48 hrs in compound-free medium by cell counting", "format": "functional, Giardia duodenalis"}, "[2]": {"tested_on": "Giardia duodenalis", "assay": "Inhibition of Giardia intestinalis fructose 1,6-bisphosphate aldolase at 400 nM after 2 hrs by spectrophotometry"}, "[3]": {"tested_on": "Giardia intestinalis", "assay": "Giardicidal activity against Giardia intestinalis IMSS:0696:1 compound treated for 48 hrs followed by incubation for 48 hrs in compound-free medium by cell counting", "format": "functional, organism-based", "conditions": "Giardia duodenalis, IMSS:0696:1, 48 h"}, "[4]": {"tested_on": "Trichomonas vaginalis", "assay": "Trichomonicidal activity against Trichomonas vaginalis GT3 compound treated for 48 hrs followed by incubation for 48 hrs in compound-free medium by cell counting", "format": "functional, organism-based", "conditions": "GT3, 48 h"}, "[5]": {"tested_on": "Giardia intestinalis", "assay": "Ratio of nitazoxanide IC50 to compound IC50 for Giardia intestinalis IMSS:0696:1 compound treated for 48 hrs followed by incubation for 48 hrs in compound-free medium by cell counting", "format": "functional, Giardia duodenalis"}, "[6]": {"assay": "Cytotoxicity against African green monkey Vero cells after 48 hrs by MTT assay", "format": "cell-based", "conditions": "chlorocebus sabaeus"}, "[7]": {"assay": "Selectivity index, ratio of CC50 for african green monkey Vero cells to IC50 for Giardia intestinalis IMSS:0696:1", "format": "functional"}, "[8]": {"tested_on": "Giardia duodenalis", "assay": "Ratio of nitazoxanide IC50 to compound IC50 for Giardia intestinalis fructose 1,6-bisphosphate aldolase at 400 nM after 2 hrs by spectrophotometry"}, "[9]": {"tested_on": "Trichomonas vaginalis", "assay": "Ratio of nitazoxanide IC50 to compound IC50 for Trichomonas vaginalis GT3 compound treated for 48 hrs followed by incubation for 48 hrs in compound-free medium by cell counting", "format": "functional"}, "[10]": {"tested_on": "Trichomonas vaginalis", "assay": "Ratio of metronidazole IC50 to compound IC50 for Trichomonas vaginalis GT3 compound treated for 48 hrs followed by incubation for 48 hrs in compound-free medium by cell counting", "format": "functional"}}, "data": [{"smiles": "O=C(CN1CCCC1)Nc1ncc([N+](=O)[O-])s1", "values": [{"measurement": "Ratio IC50", "setting": "[1]", "result": 24}, {"measurement": "inhibition", "setting": "[2]", "result": 21, "unit": "%"}, {"measurement": "IC50", "setting": "[3]; read-out: IC50", "result": 0.178, "unit": "µM"}, {"measurement": "IC50", "setting": "[4]", "result": 6.1, "unit": "µM"}, {"measurement": "Ratio IC50", "setting": "[5]", "result": 5}, {"measurement": "CC50 at 48 h", "setting": "[6]", "result": "> 1000", "unit": "µM"}]}, {"smiles": "CCN(CC)CC(=O)Nc1ncc([N+](=O)[O-])s1", "values": [{"measurement": "Ratio IC50", "setting": "[1]", "result": 44}, {"measurement": "inhibition", "setting": "[2]", "result": 66, "unit": "%"}, {"measurement": "IC50", "setting": "[3]; read-out: IC50", "result": 0.122, "unit": "µM"}, {"measurement": "IC50", "setting": "[3]; read-out: pIC50 (converted)", "result": 0.123, "unit": "µM"}, {"measurement": "IC50", "setting": "[4]", "result": 2.25, "unit": "µM"}, {"measurement": "Ratio IC50", "setting": "[5]", "result": 10}, {"measurement": "Ratio CC50/IC50", "setting": "[7]", "result": 8196}, {"measurement": "CC50 at 48 h", "setting": "[6]", "result": "> 1000", "unit": "µM"}, {"measurement": "Ratio IC50", "setting": "[8]", "result": 2}]}, {"smiles": "CC(=O)Nc1ncc([N+](=O)[O-])s1", "note": "[NITHIAMIDE]", "values": [{"measurement": "inhibition", "setting": "[2]", "result": -0, "unit": "%"}, {"measurement": "CC50 at 48 h", "setting": "[6]", "result": "> 1000", "unit": "µM"}]}, {"smiles": "O=C(Nc1ncc([N+](=O)[O-])s1)c1ccccc1O", "note": "[TIZOXANIDE]", "values": [{"measurement": "inhibition", "setting": "[2]", "result": 25, "unit": "%"}, {"measurement": "CC50 at 48 h", "setting": "[6]", "result": 388, "unit": "µM"}]}, {"smiles": "O=C(CN1CCOCC1)Nc1nc2ccc([N+](=O)[O-])cc2s1", "values": [{"measurement": "inhibition", "setting": "[2]", "result": 35, "unit": "%"}, {"measurement": "IC50", "setting": "[3]; read-out: IC50", "result": 3.35, "unit": "µM"}, {"measurement": "IC50", "setting": "[4]", "result": 0.331, "unit": "µM"}, {"measurement": "CC50 at 48 h", "setting": "[6]", "result": "> 1000", "unit": "µM"}]}, {"smiles": "O=C(CN1CCCCC1)Nc1nc2ccc([N+](=O)[O-])cc2s1", "values": [{"measurement": "inhibition", "setting": "[2]", "result": -0, "unit": "%"}, {"measurement": "IC50", "setting": "[3]; read-out: IC50", "result": 2.31, "unit": "µM"}, {"measurement": "IC50", "setting": "[4]", "result": 3.43, "unit": "µM"}, {"measurement": "CC50 at 48 h", "setting": "[6]", "result": "> 1000", "unit": "µM"}]}, {"smiles": "CC(=O)Oc1ccccc1C(=O)Nc1ncc([N+](=O)[O-])s1", "values": [{"measurement": "inhibition", "setting": "[2]", "result": 31, "unit": "%"}]}, {"smiles": "Cc1ncc([N+](=O)[O-])n1CCO", "note": "[METRONIDAZOLE]", "values": [{"measurement": "CC50 at 48 h", "setting": "[6]", "result": 367, "unit": "µM"}]}, {"smiles": "CCN(CC)CC(=O)Nc1nc2ccc([N+](=O)[O-])cc2s1", "values": [{"measurement": "inhibition", "setting": "[2]", "result": -0, "unit": "%"}, {"measurement": "IC50", "setting": "[3]; read-out: IC50", "result": 2.03, "unit": "µM"}, {"measurement": "IC50", "setting": "[4]", "result": 3.21, "unit": "µM"}, {"measurement": "CC50 at 48 h", "setting": "[6]", "result": "> 1000", "unit": "µM"}]}, {"smiles": "Nc1nc2ccc([N+](=O)[O-])cc2s1", "values": [{"measurement": "inhibition", "setting": "[2]", "result": -0, "unit": "%"}, {"measurement": "IC50", "setting": "[3]; read-out: IC50", "result": 24.4, "unit": "µM"}, {"measurement": "IC50", "setting": "[4]", "result": 0.625, "unit": "µM"}, {"measurement": "Ratio IC50", "setting": "[9]", "result": 3}, {"measurement": "CC50 at 48 h", "setting": "[6]", "result": 607, "unit": "µM"}, {"measurement": "Ratio IC50", "setting": "[10]", "result": 13}]}, {"smiles": "Nc1ncc([N+](=O)[O-])s1", "values": [{"measurement": "inhibition", "setting": "[2]", "result": -0, "unit": "%"}]}, {"smiles": "O=C(CN1CCCCC1)Nc1ncc([N+](=O)[O-])s1", "values": [{"measurement": "inhibition", "setting": "[2]", "result": 5, "unit": "%"}, {"measurement": "IC50", "setting": "[3]; read-out: IC50", "result": 0.219, "unit": "µM"}, {"measurement": "IC50", "setting": "[4]", "result": 2.04, "unit": "µM"}, {"measurement": "CC50 at 48 h", "setting": "[6]", "result": "> 1000", "unit": "µM"}]}, {"smiles": "O=C(CN1CCOCC1)Nc1ncc([N+](=O)[O-])s1", "values": [{"measurement": "Ratio IC50", "setting": "[1]", "result": 35}, {"measurement": "inhibition", "setting": "[2]", "result": 54, "unit": "%"}, {"measurement": "IC50", "setting": "[3]; read-out: IC50", "result": 0.151, "unit": "µM"}, {"measurement": "IC50", "setting": "[3]; read-out: pIC50 (converted)", "result": 0.151, "unit": "µM"}, {"measurement": "IC50", "setting": "[4]", "result": 0.305, "unit": "µM"}, {"measurement": "Ratio IC50", "setting": "[5]", "result": 8}, {"measurement": "Ratio CC50/IC50", "setting": "[7]", "result": 6622}, {"measurement": "CC50 at 48 h", "setting": "[6]", "result": "> 1000", "unit": "µM"}, {"measurement": "Ratio IC50", "setting": "[8]", "result": 2}]}, {"smiles": "O=C(CN1CCCC1)Nc1nc2ccc([N+](=O)[O-])cc2s1", "values": [{"measurement": "inhibition", "setting": "[2]", "result": 10, "unit": "%"}, {"measurement": "IC50", "setting": "[3]; read-out: IC50", "result": 0.298, "unit": "µM"}, {"measurement": "IC50", "setting": "[4]", "result": 0.221, "unit": "µM"}, {"measurement": "CC50 at 48 h", "setting": "[6]", "result": "> 1000", "unit": "µM"}]}]}
